The target of one series is T1, HSA (Homo sapiens, UniProt P02768).
T1 construct: Each sample contained 20 μM HSA in PBS at pH 7.4; from tissue; host or cells: human serum
The series is described as follows: Serum binding assay (dansylamide and BD140 probes). It counts as in vitro ADME. The following applies: 50 μM compound, 20 μM HSA.

The test system of another series is U251 glioblastoma cells. The series is described as follows: Cellular synergy, U251 growth rate (incucyte confluence). It counts as cell-based. To be noted: 10 μM of 8 (FIG. 12).
For a further series, the target named is T2, HSPA9 (Homo sapiens, UniProt P38646).
T2 construct: His6 (N, cleaved yes); made in house; host or cells: E. coli (Codon plus)
T2 sequence (P38646 442-679 limits assumed): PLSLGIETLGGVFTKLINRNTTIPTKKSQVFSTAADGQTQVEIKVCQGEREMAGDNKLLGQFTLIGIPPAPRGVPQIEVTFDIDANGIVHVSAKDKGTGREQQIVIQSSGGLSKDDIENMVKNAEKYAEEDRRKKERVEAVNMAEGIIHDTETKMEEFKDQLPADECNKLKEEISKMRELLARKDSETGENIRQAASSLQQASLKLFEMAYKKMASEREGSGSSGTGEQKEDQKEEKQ
The series is described as follows: FP peptide binding assay, HSPA9 SBD. The following applies: 1 μM HSP70 SBD, 10 nM fluorescent peptide, read-out: A9 IC50.

Series [1] has as its target T3, HSPA1A (Homo sapiens, UniProt P0DMV8). Kind of series: FP peptide binding assay, HSPA1A SBD. Set-up: His6 (N, cleaved yes); made in house; host or cells: E. coli (Codon plus). The following applies: 1 μM HSP70 SBD, 10 nM fluorescent peptide, read-out: A1A IC50.
Target sequence in this assay (P0DMV8 394-509 limits assumed): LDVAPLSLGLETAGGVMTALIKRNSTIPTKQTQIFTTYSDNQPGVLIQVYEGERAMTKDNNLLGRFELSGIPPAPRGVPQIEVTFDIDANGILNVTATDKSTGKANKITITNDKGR
For another series, the system named is cancer cell lines. The series is described as follows: ZIP synergy with CB5083, growth inhibition. It counts as cell-based. The following applies: combination of CB5083 and 8 (FIG. 9A).
The next series deals with 60 cancer cell lines. Kind of series: NCI-60 human tumor cell line screen. To be noted: fixed concentration of 10 μM (FIG. 8). It counts as cell-based.
The next series addresses T4, HSPA2 (Homo sapiens, UniProt P54652).
T4 construct: His6 (N, cleaved yes); made in house; host or cells: E. coli (Codon plus)
Kind of series: FP peptide binding assay, HSPA2 SBD. The following applies: 1 μM HSP70 SBD, 10 nM fluorescent peptide, read-out: A2 IC50.

Series [2] addresses T5, HSPA8 (Homo sapiens, UniProt P11142). Kind of series: FP peptide binding assay, HSPA8 SBD. Set-up: His6 (N, cleaved yes); made in house; host or cells: E. coli (Codon plus). The following applies: 1 μM HSP70 SBD, 10 nM fluorescent peptide, read-out: A8 IC50.
Target sequence in this assay (P11142 394-509 limits assumed): as the sequence (P0DMV8 394-509 limits assumed) above, with A4T, L10I, A19V, S25T, I34T, R65K, S69T, T96S, T98V, A105E counted along it
For the next series, the target named is T6, HSPA6 (Homo sapiens, UniProt P17066).
T6 construct: His6 (N, cleaved yes); made in house; host or cells: E. coli (Codon plus)
T6 sequence (P17066 396-511 limits assumed): as the sequence (P0DMV8 394-509 limits assumed) above, with A19T, K22Q, S25A, I34T, L46F, N94S, K100R counted along it
The series is described as follows: FP peptide binding assay, HSPA6 SBD. To be noted: 1 μM HSP70 SBD, 10 nM fluorescent peptide, read-out: A6 IC50.

The target of another series is HSPA5 (Homo sapiens, UniProt P11021). Kind of series: FP peptide binding assay, HSPA5 (HSPA5-NRLLLTG interaction). Details: His6 (N, cleaved yes); made in house; host or cells: E. coli (Codon plus). The following applies: FP, 1 μM HSP70 SBD, 10 nM fluorescent peptide; read-out: A5 IC50.
Chain of HSPA5 (P11021 419-632): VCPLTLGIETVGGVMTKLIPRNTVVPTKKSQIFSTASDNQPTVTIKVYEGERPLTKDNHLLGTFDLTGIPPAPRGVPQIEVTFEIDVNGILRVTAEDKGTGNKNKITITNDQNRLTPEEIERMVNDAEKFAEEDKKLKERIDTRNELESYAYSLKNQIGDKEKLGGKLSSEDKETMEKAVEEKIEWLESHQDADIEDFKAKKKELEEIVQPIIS
Series [3] addresses T7, HspA5 substrate binding domain (Homo sapiens, UniProt P11021).
T7 construct: HspA5SBD); His6-Smt3 (N, cleaved yes); made in house; host or cells: E. coli BL21-Codon+
Kind of series: 15N-HSQC NMR of HspA5 substrate binding domain. To be noted: FIG. 11.

Series [4] can be described thus: Solubility (comparison in words). It counts as physicochemical.
For series [5], the system named is canonical human HSP70 isoforms. Kind of series: FP binding of fluorescent peptides to HSP70 substrate binding domains. To be noted: FIG. 4A.
The target in series [6] is T3, HSPA1A. The following applies: read-out: NRLLLTG affinity for HSPA1A; reported in the literature; cited from earlier work.
Target sequence in this assay (P0DMV8 whole entry): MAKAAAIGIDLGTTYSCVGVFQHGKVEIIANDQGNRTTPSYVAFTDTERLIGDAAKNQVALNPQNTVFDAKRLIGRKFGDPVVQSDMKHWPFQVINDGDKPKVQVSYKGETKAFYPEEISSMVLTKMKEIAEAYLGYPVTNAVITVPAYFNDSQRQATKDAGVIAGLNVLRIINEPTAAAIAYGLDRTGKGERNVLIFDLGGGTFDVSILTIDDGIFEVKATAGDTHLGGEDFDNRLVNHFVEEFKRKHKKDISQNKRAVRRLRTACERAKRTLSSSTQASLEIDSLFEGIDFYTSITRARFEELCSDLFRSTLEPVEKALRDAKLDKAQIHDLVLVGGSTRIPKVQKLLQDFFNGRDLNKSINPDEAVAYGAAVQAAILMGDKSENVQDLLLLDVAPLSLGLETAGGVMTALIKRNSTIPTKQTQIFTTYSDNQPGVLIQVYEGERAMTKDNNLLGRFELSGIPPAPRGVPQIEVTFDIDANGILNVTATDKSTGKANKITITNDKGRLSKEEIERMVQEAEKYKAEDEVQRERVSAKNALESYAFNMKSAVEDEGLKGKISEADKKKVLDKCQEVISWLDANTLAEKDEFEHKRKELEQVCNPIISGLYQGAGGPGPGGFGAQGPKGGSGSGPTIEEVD
The target in series [7] is T5, HSPA8. To be noted: read-out: NRLLLTG affinity for HSPA8; reported in the literature; cited from earlier work.
Target sequence in this assay (P11142 whole entry): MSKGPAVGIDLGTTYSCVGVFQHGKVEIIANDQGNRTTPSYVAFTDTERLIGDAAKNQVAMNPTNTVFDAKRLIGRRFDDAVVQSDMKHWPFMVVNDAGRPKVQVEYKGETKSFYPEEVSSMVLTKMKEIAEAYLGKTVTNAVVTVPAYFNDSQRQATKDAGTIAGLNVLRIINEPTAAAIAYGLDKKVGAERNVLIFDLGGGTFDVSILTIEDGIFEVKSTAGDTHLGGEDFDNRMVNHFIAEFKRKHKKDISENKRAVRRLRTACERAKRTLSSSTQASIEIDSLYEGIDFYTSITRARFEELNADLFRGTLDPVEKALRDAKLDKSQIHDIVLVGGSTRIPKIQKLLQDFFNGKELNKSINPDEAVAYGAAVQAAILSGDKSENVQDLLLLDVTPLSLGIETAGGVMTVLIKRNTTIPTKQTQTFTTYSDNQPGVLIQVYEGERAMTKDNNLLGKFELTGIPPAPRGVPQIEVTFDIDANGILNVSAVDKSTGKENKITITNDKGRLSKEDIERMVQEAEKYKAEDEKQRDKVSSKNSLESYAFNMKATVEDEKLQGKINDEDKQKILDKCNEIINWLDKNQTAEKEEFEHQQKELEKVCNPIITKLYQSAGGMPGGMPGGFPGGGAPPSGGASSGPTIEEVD

T7 sequence (P11021 418-635): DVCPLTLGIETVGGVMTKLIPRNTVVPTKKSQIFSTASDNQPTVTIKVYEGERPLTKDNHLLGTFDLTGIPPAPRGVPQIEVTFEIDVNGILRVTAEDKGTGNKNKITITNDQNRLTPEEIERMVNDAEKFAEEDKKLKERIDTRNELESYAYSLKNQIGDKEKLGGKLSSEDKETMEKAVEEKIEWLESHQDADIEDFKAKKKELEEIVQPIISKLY
T4 sequence (P54652 397-512 limits assumed): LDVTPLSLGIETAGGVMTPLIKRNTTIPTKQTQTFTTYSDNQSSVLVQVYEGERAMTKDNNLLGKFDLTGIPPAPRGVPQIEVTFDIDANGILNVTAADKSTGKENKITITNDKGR
T1 sequence (P02768 25-609): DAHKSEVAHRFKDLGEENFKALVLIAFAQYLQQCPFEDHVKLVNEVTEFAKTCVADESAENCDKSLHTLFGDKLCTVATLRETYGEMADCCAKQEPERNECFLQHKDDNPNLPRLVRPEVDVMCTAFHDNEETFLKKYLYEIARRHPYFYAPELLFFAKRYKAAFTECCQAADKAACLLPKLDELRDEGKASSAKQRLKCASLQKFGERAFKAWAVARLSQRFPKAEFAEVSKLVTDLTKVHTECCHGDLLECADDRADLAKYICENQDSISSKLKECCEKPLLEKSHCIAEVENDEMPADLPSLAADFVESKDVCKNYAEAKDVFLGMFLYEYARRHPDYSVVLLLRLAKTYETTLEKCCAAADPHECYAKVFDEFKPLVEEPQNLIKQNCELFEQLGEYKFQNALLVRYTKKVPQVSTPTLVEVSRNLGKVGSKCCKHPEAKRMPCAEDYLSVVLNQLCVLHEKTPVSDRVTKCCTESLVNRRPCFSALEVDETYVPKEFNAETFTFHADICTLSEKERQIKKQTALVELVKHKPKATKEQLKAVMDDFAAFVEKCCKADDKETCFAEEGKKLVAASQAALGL

One may read the IC50 as the concentration at which inhibition is half-maximal. On to `CC(C)[C@H](NC(=O)c1cc2ccccc2[nH]1)C(=O)Nc1nccs1` [Compound 8], for which, at HSA, the “Serum Binding” value was under 10%. In addition, in the series on U251 glioblastoma cells, the “growth inhibition with ER stress inducers MG132, thapsigargin, and CB5082” value is “inhibits growth of these cells in a synergistic manner”. Also, the IC50 on HSPA9 is 4.3 µM; on HSPA1A [1], over 50 µM; on HSPA2, 13.9 µM; at HSPA8 [2] it was 43.5 µM; at HSPA6 it was over 50 µM. Besides, the “ZIP synergy with p97 inhibitor CB5083” value in the series on cancer cell lines is “growth inhibition was observed when both compounds are present a concentration where neither showed activity independently”. Moreover, the “growth inhibition in NCI-60 panel” value in the series on 60 cancer cell lines is reported as “did not indicate significant decrease in growth rates”.

For the compound `CC(C)[C@H](NC(=O)c1cccs1)C(=O)O` [Compound 17, (thiophene-2-carbonyl)-L-valine], the IC50 on HSPA5 is over 50 µM.

Take `CC(=O)c1ccc2[nH]c(C(=O)N[C@H](C(=O)Nc3nccs3)C(C)C)cc2c1` [Compound 24, (S)-5-acetyl-N-(3-methyl-1-oxo-1-(thiazol-2-ylamino)butan-2-yl)-1H-indole-2-carboxamide]: at HSPA5, the IC50 was 0.43 ± 0.09 µM. The “binding to HSPA5 SBD by HSQC” value in [3] is recorded as “binds to HSPA5 in a manner that stabilizes its structure”. The “solubility (comparison)” value in series [4] was “much more soluble than compound 8”.

With “FITC-NR: Fluorescent peptide (FITC-NRLLLTG) used as FP probe”, the “binding of fluorescent peptide to HSP70 isoforms” value in series [5] was “only bound tightly to HSPA5 and HSPA9”.

Turning to NRLLLTG, the Kd on HSPA1A [6] and at HSPA8 [7] was 10 µM each time.

In the case of “P1: fluorescent peptide FAM-ALLLSAPRR that binds human HSP70 isoforms [Compound P1]”, in [5], the “binding of fluorescent peptide to HSP70 isoforms” value was “bound with high affinity to all isoforms except HSPA1L”.
